US20250221988A1 (Cullgen (Shanghai), Inc., priority 2022, published 2025)
Like-named read-outs stand apart in the source and are kept apart here.

Legend:
[1] = test system: MOLM-13 cells; assay: Cell viability assay (CellTiter-Glo) in MOLM-13 cells; format: cell-based; settings: MOLM-13 cells, three days
Method: (§1) Cell Culture: RS4;11, MV4;11, MOLM-13 and other cells were cultured at 37° C. with 5% CO2 in RPMI 1640 or DMEM Medium supplemented with 10% fetal bovine serum. Cells were authenticated using the short tandem repeat (STR) assays. Mycoplasma test results were negative.
Cell viability assays: Cells were seeded at a density of 5000 cells per well in 96-well assay plates and treated with test compounds following a 8-point or 12-point 3-fold serial dilution. Three days later, cell viability was determined using the CellTiter-Glo assay kit according to the manufacturer's instructions. The dose-response curves were determined and IC50 values were calculated using the GraphPad Prism software following a nonlinear regression (least squares fit) method. […]

[2] = test system: MV4;11 cells; assay: Cell viability assay (CellTiter-Glo) in MV4;11 cells; format: cell-based; settings: MV4;11 cells, three days, read-out: MV4
Method: as §1
Cell viability assays: Cells were seeded at a density of 5000 cells per well in 96-well assay plates and treated with test compounds following a 8-point or 12-point 3-fold serial dilution. Three days later, cell viability was determined using the CellTiter-Glo assay kit according to the manufacturer's instructions. The dose-response curves were determined and IC50 values were calculated using the GraphPad Prism software following a nonlinear regression (least squares fit) method.
The IC50 values (nM) of each compound were determined in MV4;11 and MOLM-13 cells with or without gilteritinib (10 nM for MV4;11; and 20 nM for MOML-13) as described in the Materials and Methods subsection and calculated using the GraphPad Prism 5.0 software.

[3] = Homo sapiens, 72 h, compound alone, read-out: MOLM-13 IC50
[4] = Homo sapiens, MV4-11, 72 h, compound alone, 11 IC50
[5] = with gilteritinib, read-out: MOLM-13 IC50 (nM) + 10 nM Gil
[6] = with 10 nM gilteritinib, 11 IC50 (nM) + 10 nM Gil

Row | SMILES | IC50 [1, 3] | IC50 [2, 4] | IC50 [1, 5] | IC50 [2, 6]
1 | Cc1nc(-c2cn([C@H]3C[C@@H]3CNc3ccc4c(c3)C(=O)N(C3CCC(=O)NC3=O)C4=O)nc2C2CC2)ccc1F (relative stereo) [GS-643, 5-(((Trans-2-(3-cyclopropyl-4-(5-fluoro-6-methylpyridin-2-yl)-1H-pyrazol-1-yl)cyclopropyl)methyl)amino)-2-(2,6-dioxopiperidin-3-yl)isoindoline-1,3-dione] | > 1000 nM | > 1000 nM |  | 
2 | O=C1CCC(N2C(=O)c3ccc(NC[C@H]4C[C@H](n5cc(-c6cc7c(cn6)cnn7CC(F)(F)F)c(C6CC6)n5)C4)cc3C2=O)C(=O)N1 (relative stereo) [GS-704, 5-(((Trans-3-(3-cyclopropyl-4-(1-(2,2,2-trifluoroethyl)-1H-pyrazolo[4,3-c]pyridin-6-yl)-1H-pyrazol-1-yl)cyclobutyl)methyl)amino)-2-(2,6-dioxopiperidin-3-yl)isoindoline-1,3-dione] | 10 to 100 nM | 10 to 100 nM | < 10 nM | < 10 nM
3 | O=C1CCC(N2C(=O)c3ccc(NC[C@H]4C[C@H](n5cc(-c6cccc(N7CCCC7)n6)c(C6CC6)n5)C4)cc3C2=O)C(=O)N1 (relative stereo) [GS-748, 5-(((Trans-3-(3-cyclopropyl-4-(6-(pyrrolidin-1-yl)pyridin-2-yl)-1H-pyrazol-1-yl)cyclobutyl)methyl)amino)-2-(2,6-dioxopiperidin-3-yl)isoindoline-1,3-dione] | 10 to 100 nM | 10 to 100 nM | < 10 nM | < 10 nM
4 | O=C1CCC(N2C(=O)c3ccc(OC[C@H]4C[C@H](n5cc(-c6cnc7ccccc7n6)c(C6CC6)n5)C4)cc3C2=O)C(=O)N1 (stereo partly drawn) [GS-640, 5-((Trans-3-(3-cyclopropyl-4-(quinoxalin-2-yl)-1H-pyrazol-1-yl)cyclobutyl)methoxy)-2-(2,6-dioxopiperidin-3-yl)isoindoline-1,3-dione] | > 1000 nM | > 1000 nM | 100 to 1000 nM | 100 to 1000 nM
5 | O=C1CCC(N2C(=O)c3ccc(NC[C@H]4C[C@H](n5cc(-c6ncccc6OC6CC6)c(C6CC6)n5)C4)cc3C2=O)C(=O)N1 (stereo partly drawn) [GS-641, 5-(((Trans-3-(4-(3-cyclopropoxypyridin-2-yl)-3-cyclopropyl-1H-pyrazol-1-yl)cyclobutyl)methyl)amino)-2-(2,6-dioxopiperidin-3-yl)isoindoline-1,3-dione] | < 10 nM | < 10 nM | < 10 nM | < 10 nM
6 | O=C1CCC(N2C(=O)c3ccc(NCCCn4cc(-c5cnc6ccccc6n5)c(C5CC5)n4)cc3C2=O)C(=O)N1 (stereo not drawn) [GS-642, 5-((3-(3-Cyclopropyl-4-(quinoxalin-2-yl)-1H-pyrazol-1-yl)propyl)amino)-2-(2,6-dioxopiperidin-3-yl)isoindoline-1,3-dione] | 10 to 100 nM | 10 to 100 nM | < 10 nM | < 10 nM
7 | O=C1CCC(N2C(=O)c3ccc(NC[C@H]4C[C@H](n5cc(-c6cnc7ccc(N8CC(O)C8)cc7n6)c(C6CC6)n5)C4)cc3C2=O)C(=O)N1 (stereo partly drawn) [GS-644, 5-(((Trans-3-(3-cyclopropyl-4-(7-(3-hydroxyazetidin-1-yl)quinoxalin-2-yl)-1H-pyrazol-1-yl)cyclobutyl)methyl)amino)-2-(2,6-dioxopiperidin-3-yl)isoindoline-1,3-dione] | 10 to 100 nM | 10 to 100 nM | < 10 nM | < 10 nM
8 | Cc1nc(-c2cn(CC3CC3CNc3ccc4c(c3)C(=O)N(C3CCC(=O)NC3=O)C4=O)nc2C2CC2)ccc1F (stereo not drawn) [GS-645, 5-(((2-((3-Cyclopropyl-4-(5-fluoro-6-methylpyridin-2-yl)-1H-pyrazol-1-yl)methyl)cyclopropyl)methyl)amino)-2-(2,6-dioxopiperidin-3-yl)isoindoline-1,3-dione] | > 1000 nM | > 1000 nM | 100 to 1000 nM | 
9 | COC1CCCCC1c1cn([C@H]2C[C@H](CNc3ccc4c(c3)C(=O)N(C3CCC(=O)NC3=O)C4=O)C2)nc1C1CC1 (stereo partly drawn) [GS-646, 5-(((Trans-3-(3-cyclopropyl-4-(2-methoxycyclohexyl)-1H-pyrazol-1-yl)cyclobutyl)methyl)amino)-2-(2,6-dioxopiperidin-3-yl)isoindoline-1,3-dione] | 100 to 1000 nM | 10 to 100 nM | 10 to 100 nM | 10 to 100 nM
10 | O=C1CCC(N2C(=O)c3ccc(NC[C@H]4C[C@H](n5cc(-c6cccc(N7CC(O)C7)n6)c(C6CC6)n5)C4)cc3C2=O)C(=O)N1 (stereo partly drawn) [GS-647, 5-(((Trans-3-(3-cyclopropyl-4-(6-(3-hydroxyazetidin-1-yl)pyridin-2-yl)-1H-pyrazol-1-yl)cyclobutyl)methyl)amino)-2-(2,6-dioxopiperidin-3-yl)isoindoline-1,3-dione] | > 1000 nM | > 1000 nM | 10 to 100 nM | 100 to 1000 nM
11 | O=C1CCC(N2C(=O)c3ccc(NC[C@H]4C[C@H](n5nc(C6CC6)c6nccnc65)C4)cc3C2=O)C(=O)N1 (stereo partly drawn) [GS-648, 5-(((Trans-3-(3-cyclopropyl-1H-pyrazolo[3,4-b]pyrazin-1-yl)cyclobutyl)methyl)amino)-2-(2,6-dioxopiperidin-3-yl)isoindoline-1,3-dione] | > 1000 nM | > 1000 nM | 100 to 1000 nM | 
12 | Cn1ncc2ccnc(-c3cn([C@H]4C[C@H](CNc5ccc6c(c5)C(=O)N(C5CCC(=O)NC5=O)C6=O)C4)nc3C3CC3)c21 (stereo partly drawn) [GS-649, 5-(((trans-3-(3-Cyclopropyl-4-(1-methyl-1H-pyrazolo[3,4-c]pyridin-7-yl)-1H-pyrazol-1-yl)cyclobutyl)methyl)amino)-2-(2,6-dioxopiperidin-3-yl)isoindoline-1,3-dione] | 10 to 100 nM | < 10 nM | < 10 nM | < 10 nM
13 | CN(C)c1ccccc1-c1cn([C@H]2C[C@H](CNc3ccc4c(c3)C(=O)N(C3CCC(=O)NC3=O)C4=O)C2)nc1C1CC1 (stereo partly drawn) [GS-650, 5-(((trans-3-(3-Cyclopropyl-4-(2-(dimethylamino)phenyl)-1H-pyrazol-1-yl)cyclobutyl)methyl)amino)-2-(2,6-dioxopiperidin-3-yl)isoindoline-1,3-dione] | 100 to 1000 nM | 10 to 100 nM | 10 to 100 nM | 10 to 100 nM
14 | O=C1CCC(N2Cc3cc(NC[C@H]4C[C@H](n5cc(-c6cnc7ccccc7n6)c(C6CC6)n5)C4)ccc3C2=O)C(=O)N1 (stereo partly drawn) [GS-651, 3-(5-(((trans-3-(3-Cyclopropyl-4-(quinoxalin-2-yl)-1H-pyrazol-1-yl)cyclobutyl)methyl)amino)-1-oxoisoindolin-2-yl)piperidine-2,6-dione] | 10 to 100 nM | < 10 nM | < 10 nM | < 10 nM
15 | O=C1CCC(N2C(=O)c3ccc(NC[C@H]4C[C@H](n5cc(-c6ccccc6N6CCNCC6)c(C6CC6)n5)C4)cc3C2=O)C(=O)N1 (stereo partly drawn) [GS-652, 5-(((Trans-3-(3-cyclopropyl-4-(2-(piperazin-1-yl)phenyl)-1H-pyrazol-1-yl)cyclobutyl)methyl)amino)-2-(2,6-dioxopiperidin-3-yl)isoindoline-1,3-dione] | > 1000 nM | > 1000 nM | 100 to 1000 nM | 10 to 100 nM
16 | Cc1nc(-c2cn([C@H]3C[C@H](CNc4ccc5c(c4)CN([C@@H]4CCC(=O)NC4=O)C5=O)C3)nc2C2CC2)ccc1F [GS-801, (R)-3-(5-(((trans-3-(3-cyclopropyl-4-(5-fluoro-6-methylpyridin-2-yl)-1H-pyrazol-1-yl)cyclobutyl)methyl)amino)-1-oxoisoindolin-2-yl)piperidine-2,6-dione] | 10 to 100 nM |  |  | 
